What follows are molecules tested against RIPK1 (recombinant GST-RIPK1 kinase domain, residues 1-327) (Homo sapiens (Human), UniProt Q13546) (assay: RIPK1-ADP-Glo Enzymatic Assay). Settings: 25 nM GST-RIPK1, 300 μM ATP, 3 μM dephosphorylated-MBP; 30 minutes pre-incubation, 150 minutes reaction; ten-point titration.
Type: biochemical
Procedure: The enzymatic activity of RIPK1 is measured using an assay derived from ADP-Glo kit (™Promega), which provides a luminescent-based ADP detection system. Specifically, the ADP generated by RIPK1 kinase is proportionally detected as luminescent signals in a homogenous fashion. In this context, the assessment of the inhibitory effect of small molecules (EC50) is measured by the effectiveness of the compounds to inhibit the ATP to ADP conversion by RIPK1.
In this assay, the potency (EC50) of each compound was determined from a ten-point (1:3 serial dilution; top compound concentration of 100000 nM) titration curve using the following outlined procedure. To each well of a white ProxiPlus 384 well-plate, 30 nL of compound (1% DMSO in final assay volume of 3 μL) was dispensed, followed by the addition of 2 μL of 1× assay buffer (25 mM Hepes 7.3, 20 mM MgCl2, 50 mM NaCl, 1 mM DTT, 0.005% Tween20, and 0.02% BSA) containing 37.5 nM of GST-RIPK1 (recombinant GST-RIPK1 kinase domain (residues 1-327) enzyme produced from baculovirus-transfected Sf21 cells: MW=62 kDa). Plates were placed in an ambient temperature humidified chamber for a 30 minutes pre-incubation with compound. Subsequently, each reaction was initiated by the addition of 1 μL 1× assay buffer containing 900 μM ATP and 3 μM dephosphorylated-MBP substrate. The final reaction in each well of 3 μL consists of 25 nM of GST-RIPK1, 300 μM ATP, and 3 μM dephosphorylated-MBP. Kinase reactions were allowed to proceed for 150 minutes prior to adding ADP-Glo reagents per Promega's outlined kit protocol. Dose-response curves were generated by plotting percent effect (% product conversion; Y-axis) vs. Log10 compound concentrations (X-axis). EC50 values were calculated using a non-linear regression, four-parameters sigmoidal dose-response model.

RIPK1 (recombinant GST-RIPK1 kinase domain, residues 1-327), sequence (Q13546 1-327): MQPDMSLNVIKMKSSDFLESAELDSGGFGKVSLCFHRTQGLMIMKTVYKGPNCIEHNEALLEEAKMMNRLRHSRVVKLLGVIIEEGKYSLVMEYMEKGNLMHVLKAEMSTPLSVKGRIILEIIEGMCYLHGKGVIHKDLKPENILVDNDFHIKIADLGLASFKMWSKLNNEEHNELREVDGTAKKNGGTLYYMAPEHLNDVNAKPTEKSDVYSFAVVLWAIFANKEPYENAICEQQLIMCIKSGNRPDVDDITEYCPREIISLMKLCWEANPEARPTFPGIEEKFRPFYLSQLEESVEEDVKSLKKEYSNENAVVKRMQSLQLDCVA

SMILES | IC50 [nM]
O=C(NCc1ccc(Cl)cc1)C(=O)N1CC2C[C@H]1c1ccccc1O2 (stereo in doubt) [Compound 1-56, N-[(4-chlorophenyl)methyl]-2-[(2R,5S)-2,3-dihydro-2,5-methano-1,4-benzoxazepin-4(5H)-yl]-2-oxoacetamide] | 863
O=C(N1C[C@@H]2C[C@H]1c1ccccc1O2)C1(F)CCCC1 [Compound 1-19, [(2S,5S)-2,3-dihydro-2,5-methano-1,4-benzoxazepin-4(5H)-yl](1-fluorocyclopentyl)methanone] | 499
COC12CCC(C(=O)N3C[C@@H]4C[C@H]3c3ccccc3O4)(CC1)C2 [Compound 1-46, [(2S,5S)-2,3-dihydro-2,5-methano-1,4-benzoxazepin-4(5H)-yl](4-methoxybicyclo[2.2.1]heptan-1-yl)methanone] | 117
CC1(C(=O)N2C[C@@H]3C[C@H]2c2ccccc2O3)CCCC1 [Compound 1-6, ((2S,5S)-2,3-dihydro-2,5-methanobenzo[f][1,4]oxaze-pin-4(5H)-yl)(1-methylcyclopentyl) methanone] | 43
O=C(C1CCN(c2ncnc3scnc23)CC1)N1C[C@@H]2C[C@H]1c1ccccc1O2 [Compound 1-37, [(2S,5S)-2,3-dihydro-2,5-methano-1,4-benzoxazepin-4(5H)-yl][1-([1,3]thiazolo[5,4-d]pyrimidin-7-yl)piperidin-4-yl]methanone] | 124
O=C(C1CCCCC1)N1C[C@@H]2C[C@H]1c1ccccc1O2 [Compound 1-8, cyclohexyl((2S,5S)-2,3-dihydro-2,5-methanobenzo[f][1,4]oxaze-pin-4(5H)-yl)methanone] | 641
O=C(N1C[C@@H]2C[C@H]1c1ccccc1O2)C12CCC(C(F)F)(CC1)CC2 [Compound 1-54, [4-(difluoromethyl)bicyclo [2.2.2]octan-1-yl][(2S,5S)-2,3-dihydro-2,5-methano-1,4-benzoxazepin-4(5H)-yl]methanone] | 263
CC(C)(C(=O)N1C[C@@H]2C[C@H]1c1ccccc1O2)C1CCC1 [Compound 1-11, 2-cyclobutyl-1-[(2S,5S)-2,3-dihydro-2,5-methano-1,4-benzoxazepin-4(5H)-yl]-2-methylpropan-1-one] | 244
CC1(C(=O)N2C[C@@H]3C[C@H]2c2ccccc2O3)CCOC1 (mixture of isomers) [Compound 1-50, [(2S,5S)-2,3-dihydro-2,5-methano-1,4-benzoxazepin-4(5H)-yl]-[(R and S)-3-methyloxolan-3-yl]methanone] | 393
O=C(N1C[C@@H]2C[C@H]1c1ccccc1O2)C1(C(F)F)CCCC1 [Compound 1-13, [1-(difluoromethyl)cyclopentyl] [(2S,5S)-2,3-dihydro-2,5-methano-1,4-benzoxazepin-4(5H)-yl]methanone] | 104
COC(=O)C12CCC(C(=O)N3C[C@@H]4C[C@H]3c3ccccc3O4)(CC1)C2 [Compound 1-55, methyl 4-[(2S,5S)-2,3-dihydro-2,5-methano-1,4-benzoxazepine-4(5H)-carbonyl]bicyclo[2.2.1] heptane-1-carboxylate] | 43
O=C(C1CCN(c2nccn3ncnc23)CC1)N1C[C@@H]2C[C@H]1c1ccccc1O2 [Compound 1-39, [(2S,5S)-2,3-dihydro-2,5-methano-1,4-benzoxazepin-4(5H)-yl][1-([1,2,4]triazolo[1,5-a]pyrazin-8-yl)piperidin-4-yl]methanone] | 213
O=C(N1C[C@@H]2C[C@H]1c1ccccc1O2)C12CCC(c3ccccc3)(CC1)CC2 [Compound 1-51, [(2S,5S)-2,3-dihydro-2,5-methano-1,4-benzoxazepin-4(5H)-yl](4-phenylbicyclo[2.2.2]octan-1-yl)methanone] | 723
O=C(N1C[C@@H]2C[C@H]1c1ccccc1O2)C12CCC(C(F)(F)F)(CC1)C2 [Compound 1-44, [(2S,5S)-2,3-dihydro-2,5-methano-1,4-benzoxazepin-4(5H)-yl][4-(trifluoromethyl)bicyclo [2.2.1]heptan-1-yl]methanone] | 17
N#Cc1cc(N2CCC(C(=O)N3C[C@@H]4C[C@H]3c3ccccc3O4)CC2)ncn1 [Compound 1-36, 6-{4-[(2S,5S)-2,3-dihydro-2,5-methano-1,4-benzoxazepine-4(5H)-carbonyl]piperidin-1-yl}pyrimidine-4-carbonitrile] | 327
O=C(N1C[C@@H]2C[C@H]1c1ccccc1O2)C12CCCC(C1)C2 [Compound 1-10, bicyclo[3.1.1]heptan-1-yl((2S,5S)-2,3-dihydro-2,5-methanobenzo[f][1,4]oxaze-pin-4(5H)-yl)methanone] | 138
N#CC1(C(=O)N2C[C@@H]3C[C@H]2c2ccccc2O3)CCC1 [Compound 1-30, 1-[(2S,5S)-2,3-dihydro-2,5-methano-1,4-benzoxazepine-4(5H)-carbonyl]cyclobutane-1-carbonitrile] | 76
CC(C)(C(=O)N1C[C@@H]2C[C@H]1c1ccccc1O2)C1CC1 [Compound 1-28, 2-cyclopropyl-1-[(2S,5S)-2,3-dihydro-2,5-methano-1,4-benzoxazepin-4(5H)-yl]-2-methylpropan-1-one] | 22

More lines, now with the values ahead:

IC50 [nM] | SMILES
6580 | C[C@@]12C[C@@H](c3ccccc3O1)N(C(=O)C13CCC(CC1)C3)C2 (single isomer, unassigned) [Compound 3-7]
35 | CC(F)(F)C(C)(C)C(=O)N1C[C@@H]2C[C@H]1c1ccc(Cl)cc1O2 [Compound 2-16, 1-((2S,5S)-8-chloro-2,3-dihydro-2,5-methanobenzo[f][1,4]oxaze-pin-4(5H)-yl)-3,3-difluoro-2,2-dimethylbutan-1-one]
10 | N#Cc1cc(F)cc2c1O[C@H]1C[C@@H]2N(C(=O)C23CCC(F)(CC2)C3)C1 [Compound 2-25, (2S,5S)-7-fluoro-4-(4-fluorobicyclo[2.2.1]heptane-1-carbonyl)-2,3,4,5-tetrahydro-2,5-methano-1,4-benzoxazepine-9-carbonitrile]
24 | O=C(N1C[C@@H]2C[C@H]1c1cccc(F)c1O2)C12CCC(CC1)C2 [Compound 2-15, (bicyclo[2.2.1]heptan-1-yl)[(2S,5S)-9-fluoro-2,3-dihydro-2,5-methano-1,4-benzoxazepin-4(5H)-yl]methanone]
16 | CC(C)(CC#N)C(=O)N1C[C@@H]2C[C@H]1c1cc(F)cc(F)c1O2 [Compound 2-27, 4-[(2S,5S)-7,9-difluoro-2,3-dihydro-2,5-methano-1,4-benzoxazepin-4(5H)-yl]-3,3-dimethyl-4-oxobutanenitrile]
27 | N#Cc1ccnc(N2CCC(F)(C(=O)N3C[C@@H]4C[C@H]3c3cc(F)cc(F)c3O4)CC2)n1 [Compound 2-34, 2-(4-((2S,5S)-7,9-difluoro-2,3,4,5-tetrahydro-2,5-methanobenzo[f][1,4]oxaze-pine-4-carbonyl)-4-fluoropiperidin-1-yl)pyrimidine-4-carbonitrile]
52 | CC(C)(C(=O)N1C[C@@H]2C[C@H]1c1cccc(Cl)c1O2)C(F)F [Compound 2-20, 1-[(2S,5S)-9-chloro-2,3-dihydro-2,5-methano-1,4-benzoxazepin-4(5H)-yl]-3,3-difluoro-2,2-dimethylpropan-1-one]
26 | CC(C)(C(=O)N1C[C@@H]2C[C@H]1c1cc(F)cc(C#N)c1O2)C(F)F [Compound 2-11, (2S,5S)-4-(3,3-difluoro-2,2-dimethylpropanoyl)-7-fluoro-2,3,4,5-tetrahydro-2,5-methano-1,4-benzoxazepine-9-carbonitrile]
43 | CC(C)(C)C(=O)N1C[C@@H]2C[C@H]1c1cccc(F)c1O2 [Compound 2-6, 1-[(2S,5S)-9-fluoro-2,3-dihydro-2,5-methano-1,4-benzoxazepin-4(5H)-yl]-2,2-dimethylpropan-1-one]
25 | CC(C)(C(=O)N1C[C@@H]2C[C@H]1c1cc(F)ccc1O2)C(F)F [Compound 2-7, 3,3-difluoro-1-[(2S,5S)-7-fluoro-2,3-dihydro-2,5-methano-1,4-benzoxazepin-4(5H)-yl]-2,2-dimethylpropan-1-one]
14700 | CC(C)(C(=O)N1C[C@]2(C)C[C@H]1c1ccccc1O2)C(F)F [Compound 3-6, 3,3-difluoro-2,2-dimethyl-1-((2S,5S)-2-methyl-2,3-dihydro-2,5-methanobenzo[f][1,4]oxaze-pin-4(5H)-yl)propan-1-one]
37 | CC(C)(C(=O)N1C[C@@H]2C[C@H]1c1ccc(Cl)cc1O2)C(F)F [Compound 2-21, 1-[(2S,5S)-8-chloro-2,3-dihydro-2,5-methano-1,4-benzoxazepin-4(5H)-yl]-3,3-difluoro-2,2-dimethylpropan-1-one]
1490 | CC(C)(CC#N)C(=O)N1C[C@H]2Cc3ccccc3[C@@H]1C2 [Compound 3-3, 3,3-dimethyl-4-oxo-4-((1S,4S)-1,3,4,5-tetrahydro-2H-1,4-methanobenzo[c]azepin-2-yl)butanenitrile]

Source: patent publication US20240208986A1, “PHENYL AZEPINES AS RIPK1 INHIBITORS AND METHODS OF USE THEREOF” (Merck Sharp & Dohme LLC, priority 2021, published 2024)
